According to PMC11050087, “Polyphenols from Maackia amurensis Heartwood Protect Neuronal Cells from Oxidative Stress and Prevent Herpetic Infection” (International Journal of Molecular Sciences, 2024):
“And” between values parts separate entries of the source, which are not always exact repeats. Identical values can stand only once.

Columns and labels:
HSV-1 [1] = experiment: Virucidal activity, RT-PCR assay (HSV-1 pretreated with compounds); type: cell-based, HSV-1 strain L2; settings: for virucidal activity against HSV-1 by RT-PCR (in words): 0.1, 1 and 10 µg/mL; for Ct: 72 h; for −ΔCt: vs virus control; for activity at 0.1 µg/mL / activity at 1 µg/mL / activity at 10 µg/mL / log reduction at 0.1 µg/mL / log reduction at 1 µg/mL / log reduction at 10 µg/mL: Human alphaherpesvirus 1, 72 h; for activity at 0.1 µg/mL / activity at 1 µg/mL / activity at 10 µg/mL: read-out: 2^−ΔCt; for log reduction at 0.1 µg/mL / log reduction at 1 µg/mL / log reduction at 10 µg/mL: read-out: log10; for log10: log10 of 2^−ΔCt; for 2^−ΔCt: relative level of viral DNA vs virus control
Method: Vero cells grown on 96-well plates were infected with the virus (100 TCID50/mL), pretreated with polyphenolic compounds at concentrations 0.1, 1 and 10 μg/mL. After 72 h of cell incubation, viral DNA was extracted from the supernatants, and the relative level of HSV-1 DNA was determined using RT-PCR. The effect of polyphenols on the relative level of viral DNA was assessed using the 2^−∆Ct method and reported as fold reduction compared to virus control.
(§1) The HSV-1 strain L2 obtained from N.F. Gamaleya Federal Research Centre for Epidemiology and Microbiology (Moscow, Russia) was grown in Vero cells as previously described.
(§2) We determined the direct inhibitory effect of polyphenolic compounds from M. amurensis heartwood on HSV-1 (virucidal effect). We mixed the virus at an infectious dose (100 TCID50/mL) with polyphenolic compounds (from 0.1 to 100 µg/mL) at a ratio of 1:1 (v/v) and incubated for an hour at 37 °C. Then, we infected the monolayer of Vero cells grown on 96-well plates (1 × 10^4 cells/well) with HSV-1 pretreated with the studied compounds. After 1 h adsorption at 37 °C, the cells were washed with phosphate-buffered saline (PBS) and overlaid by the maintenance medium with 1% FBS. The plates were incubated for 72 h at 37 °C in a CO2-incubator. The cytopathic effect (CPE) inhibition assay and real-time reverse transcription-PCR (RT-PCR) assay were used to evaluate virucidal effect of the tested compounds.
We performed the RT-PCR assay as we previously described in detail in [22]. Briefly, HSV-1 DNA was extracted after incubation from cell supernatants by using the DNA-sorb-AM (K1-12-100-CE) nucleic acid extraction kit (AmpliSens®, Moscow, Russia) according to the manufacturer′s instructions. We treated the supernatants with a lysis solution that contained guanidine chloride (chaotropic agent) in the presence of sorbent (silica particles). As the elution solution was added, the DNA was […] silica particles and separated from the sorbent particles by centrifugation.
We detected the DNA of HSV-1 in the obtained samples using the AmpliSens® HSV I, II-FRT-100F PCR kit (AmpliSens®, Moscow, Russia) on a real-time PCR instrument Rotor-Gene Q (Qiagen, Hilden, Nordrhein-Westfalen, Germany) according to the manufacturer′s instructions. The PCR reaction conditions were the following: initial denaturation at 95 °C for 15 min; then 5 cycles at 95 °C for 5 s, at 60 °C for 20 s, at 72 °C for 15 s; then 40 cycles at 95 °C for 5 s, at 60 °C for 20 s, and at 72 °C for 15 s. A negative sample was used as the amplification control for each run. The threshold cycle number Ct, was measured as the PCR cycle, where the amount of the amplified target reached the threshold value; the Ct values ≥ 37 indicated the absence of the HSV-1 DNA in the samples. We assessed the anti-HSV-1 activity of the studied compounds by the reduction in the viral DNA levels using the 2^−ΔCt method according to Equation (2):(2) ΔCt=Ctcv−Cttv where Ct is the threshold cycle number measured as the PCR cycle, where the amount of the amplified target reached the threshold value, […]

[2] = system: 6-OHDA-treated Neuro-2a cells; experiment: 6-OHDA-induced neurotoxicity model, cell viability test (MTT); type: cell-based, murine; settings: 6-OHDA 100 µM
Method: Neuro-2a cells were incubated with the studied polyphenolic compounds for 1 h. Then, 100 µM of 6-hydroxydopamine 6-OHDA were added. We determined the percentage of living Neuro-2a cells after treatment with 6-OHDA (Figure 4a–d).
Figure 4 The effect of polyphenolic compounds isolated from M. amurensis heartwood on the viability of Neuro-2a cells treated with 6-OHDA (100 μM) (a–d). The viability of Neuro-2a cells treated with various compounds and 6-OHDA was measured by the MTT assay. Polyphenolic compounds isolated from M. amurensis heartwood were used at concentrations 10, 1, 0.1 μM. The data are presented as means ± SEM of three independent replicates. (*) indicate p < 0.05 versus 6-OHDA-treated cells.
After 24 h of adhesion, Neuro-2a cells (5 × 10^4 cells/mL) were treated with polyphenolic compounds at concentrations of 0.1, 1 and 10 μM for 1 h. Then, 100 µM of 6-OHDA or 1 mM of PQ (Sigma-Aldrich, St. Louis, MO, USA) were added. Cells incubated without inductors or with inductors were used as positive and negative control, respectively. Cell viability was measured after 24 h using the MTT assay.

HSV-1 [3] = experiment: Virucidal activity, CPE inhibition assay (HSV-1 pretreated with compounds); type: cell-based, HSV-1 strain L2; settings: for virucidal activity against HSV-1 (in words) / IC50: CPE assay; for virucidal activity against HSV-1 (in words): virus pretreated with compound; for IC50: Human alphaherpesvirus 1, virus pretreated with compound (virucidal), Vero cells, 100 TCID50/mL; for SI: ratio of CC50 to IC50, virucidal scheme
Method: The antiviral activity of polyphenols from M. amurensis against HSV-1 was assessed using the cytopathic effect inhibition (CPE) assay. To study the inhibitory effect of polyphenolic compounds directly on the HSV-1 virus (direct virucidal activity), the monolayer of Vero cells grown on 96-well plates (1 × 10^4 cells/well) was infected with the virus (100 TCD50/mL), pretreated with different concentrations of polyphenolic compounds.
as §1, §2
We previously described this method in detail in [22]. We performed the MTT assay to evaluate the antiviral activity of polyphenolic compounds. The viral inhibition rate (IR, %) was calculated according to Equation (1):(1) IR, %=Atv−Acv/Acd−Acv×100, where Atv is the absorbance of cells infected with HSV-1 pretreated with the studied compounds,
We calculated the selectivity index (SI) as the ratio of CC50 to IC50. Experiments were repeated three times.

[4] = system: 6-OHDA-treated Neuro-2a cells; experiment: Mitochondrial membrane potential detection (TMRM) in 6-OHDA-treated cells; type: cell-based, murine; settings: for increase of mitochondrial membrane potential: compound 10 µM, 6-OHDA 120 µM, TMRM
Method: We determined the effect of polyphenolic compounds from M. amurensis on 6-OHDA-induced mitochondrial dysfunction in Neuro-2a cells (Figure 6a,b).
Figure 6 The effect of polyphenolic compounds isolated from M. amurensis heartwood on mitochondrial membrane potential in Neuro-2a cells treated with 6-OHDA (120 μM) (a,b). Polyphenolic compounds isolated from M. amurensis heartwood were used at concentrations 10, 1, 0.1 μM. The data are presented as means ± SEM of three independent replicates. (*) and (***) indicate, respectively, p < 0.05 and p < 0.001 versus 6-OHDA-treated cells.
The cells were incubated for 1 h in a 96-well plate (1 × 10^4 cells/well) with polyphenolic compounds (0.1, 1 and 10 µM). Then, 6-OHDA (120 µM) was added, and cell suspension was incubated for 1 h. Cells incubated without 6-OHDA and compounds and with 6-OHDA alone were used as positive and negative control, respectively. The tetramethylrhodamine methyl (TMRM) (Sigma-Aldrich, St. Louis, MO, USA) solution (500 nM) was added to each well and cells were incubated for 30 min at 37 °C. The intensity of fluorescence was measured using a PHERAstar FSplate reader (BMG Labtech, Ortenberg, Germany) at λex = 540 nm and λem = 590 nm. The data were processed by MARS Data Analysis v. 3.01R2 (BMG Labtech, Ortenberg, Germany).

[5] = system: 6-OHDA-treated Neuro-2a cells; experiment: Apoptosis profile by flow cytometry (Annexin V & Dead Cell Kit); type: cell-based, murine; settings: Table 1; polyphenols 10 µM, 6-OHDA 100 µM, 24 h; mean
Method: We investigated the effect of polyphenolic compounds from M. amurensis on apoptosis profile in 6-OHDA-treated Neuro-2a cells by flow cytometry using fluorescent annexin V conjugate as a fluorescent dye. We observed significant changes in apoptosis profile in Neuro-2a cells after 6-OHDA-treatment. […] Polyphenols 3, 6 and 13 diminished the neurotoxic effect of 6-OHDA-treatment.
The cells were incubated for 1 h in a 6-well plate (5 × 10^4 cells/mL) with polyphenolic compounds (10 µM). Then, 6-OHDA (100 µM) was added, and cell suspension was incubated for 24 h. After incubation, the maintenance media was collected, and the cells were washed by cold PBS twice and incubated with trypsin-EDTA solution. The cell suspension was washed with cold PBS twice again, centrifugated and then used for apoptosis detection by Muse® Annexin V & Dead Cell Kit in accordance with the manufacturer’s instructions (Luminex, Austin, TX, USA). The fluorescence was measured with Muse® Cell Analyzer (Luminex, Austin, TX, USA) and the data were processed by Muse 1.5 Analysis software (Luminex, Austin, TX, USA).

## COc1ccc(C2(O)COc3cc(O)ccc3C2=O)c(O)c1 (racemic) [Compound 12, (±)-3-hydroxyvestitone]
HSV-1 [1]
  virucidal activity against HSV-1 by RT-PCR (in words): did not demonstrate virucidal activity
[2]; compound 1 µM
  effect on viability of 6-OHDA-treated Neuro-2a cells (in words): increased the viability
HSV-1 [3]
  virucidal activity against HSV-1 (in words): did not show virucidal activity

## O=c1c(-c2ccc(O)cc2)coc2cc(O)cc(O)c12 [Compound 2, genistein]
HSV-1 [1]; 0.1 µg/mL
  Ct: 18.1 ± 2.2
  −ΔCt: 0
HSV-1 [1]; 1 µg/mL
  Ct: 18.4 ± 2.4
  −ΔCt: −0.30 ± 0.03
HSV-1 [1]; 10 µg/mL
  anti-HSV-1 activity by RT-PCR (in words): moderate anti-HSV-1 activity
  Ct: 22.4 ± 2.4
  −ΔCt: −4.3 ± 0.5
HSV-1 [1]
  activity at 0.1 µg/mL: 100%
  activity at 1 µg/mL: 81.2 ± 11%
  activity at 10 µg/mL: 5.08 ± 0.61%
  log reduction at 0.1 µg/mL: 0
  log reduction at 1 µg/mL: 0.09 ± 0.01
  log reduction at 10 µg/mL: 1.3 ± 0.2
HSV-1 [3]
  IC50: 16.7 µg/mL and 61.9 µM

## COc1c(O)cc2occ(-c3ccc(O)cc3)c(=O)c2c1O [Compound 5, tectorigenin]
HSV-1 [1]
  virucidal activity against HSV-1 by RT-PCR (in words): did not demonstrate virucidal activity
[2]; compounds at 10, 1, 0.1 µM
  effect on viability of 6-OHDA-treated Neuro-2a cells (in words): weak effect on cell viability
HSV-1 [3]
  virucidal activity against HSV-1 (in words): did not show virucidal activity

## NCCc1cc(O)c(O)cc1O [Compound 6-OHDA, 6-hydroxydopamine, reference compound]
[4]; 6-OHDA alone
  decrease of TMRM fluorescence after treatment of Neuro-2a cells with 6-OHDA: 14%
[5]
  Dead: 1.11 ± 0.37%
  Early apop.: 42.62% and 42.62 ± 2.3%
  Late apop./Dead: 12.15% and 12.15 ± 1.34%
  Live: 44.14 ± 1.34%

## COc1ccc(-c2coc3cc(O)ccc3c2=O)cc1 [Compound 8, formononetin]
HSV-1 [1]
  virucidal activity against HSV-1 by RT-PCR (in words): did not demonstrate virucidal activity
[2]; compound 1 µM
  effect on viability of 6-OHDA-treated Neuro-2a cells (in words): increased the viability
[2]; compounds at 10, 1, 0.1 µM
  effect on viability of 6-OHDA-treated Neuro-2a cells (in words): weak effect on cell viability
HSV-1 [3]
  virucidal activity against HSV-1 (in words): did not show virucidal activity

## Oc1cc(O)cc(/C=C/c2ccc(O)c(O)c2)c1 [Compound 11, piceatannol]
[4]
  increase of mitochondrial membrane potential: 8–12%
HSV-1 [1]; 0.1 µg/mL
  Ct: 18.4 ± 2.4
  −ΔCt: −0.30 ± 0.03
HSV-1 [1]; 1 µg/mL
  inhibition of HSV-1 replication by RT-PCR (in words): inhibited the replication of HSV-1
  Ct: 24.5 ± 3.4
  −ΔCt: −6.4 ± 0.8
HSV-1 [1]; 10 µg/mL
  anti-HSV-1 activity by RT-PCR (in words): significantly reduced the level of viral DNA
  Ct: 30.2 ± 3.9
  −ΔCt: −12.1 ± 1.4
HSV-1 [1]
  activity at 0.1 µg/mL: 81.2 ± 11%
  activity at 1 µg/mL: 1.18 ± 0.15%
  activity at 10 µg/mL: 0.0228 ± 0.03%
  log reduction at 0.1 µg/mL: 0.09 ± 0.01
  log reduction at 1 µg/mL: 1.9 ± 0.2
  log reduction at 10 µg/mL: 3.6 ± 0.5
[2]; compounds at 10, 1, 0.1 µM
  effect on viability of 6-OHDA-treated Neuro-2a cells (in words): weak effect on cell viability
HSV-1 [3]
  IC50: 6.7 µg/mL and 27.4 µM
  SI: 37.3 ± 5.2

## medicarpin [Compound 7]
[4]
  increase of mitochondrial membrane potential: 8–12%
HSV-1 [1]; 0.1 µg/mL
  Ct: 18.1 ± 2.2
  log10: 0
  2^−ΔCt: 1.0
  −ΔCt: 0
HSV-1 [1]; 1 µg/mL
  Ct: 18.3 ± 2.2
  log10: −0.060 ± 0.008
  2^−ΔCt: 0.870 ± 0.11
  −ΔCt: −0.20 ± 0.02
HSV-1 [1]; 10 µg/mL
  anti-HSV-1 activity by RT-PCR (in words): moderate anti-HSV-1 activity
  Ct: 19.8 ± 2.4
  log10: −0.50 ± 0.06
  2^−ΔCt: 0.297 ± 0.04
  −ΔCt: −1.75 ± 0.20
[2]; compounds at 10, 1, 0.1 µM
  effect on viability of 6-OHDA-treated Neuro-2a cells (in words): weak effect on cell viability
HSV-1 [3]
  SI: 2.1 ± 0.3
